Key:
GPR68 = molecular target: T1, GPR68 (Homo sapiens, UniProt Q15743); experiment: GPR68 pH-stimulated CRE reporter assay; format: cell-based; conditions: pH 7.2; HEK293T cells transfected with GPR68
T1 construct: expressed in transfected cells; host or cells: HEK293T (transient)
Method: cAMP response element (CRE) response assays were performed as previously described by transfecting WT α1A‐ and α1B‐AR stably expressing COS‐7 cells, parental COS‐7 cells or parental HEK293T cells, with a β‐galactosidase expression plasmid under the control of the CRE promoter.10 CRE reporter‐transfected cells were seeded into 96‐well culture plates for 24 hours before treatment with various compounds for 6 hours at 37°C 5% CO2. Media was aspirated, and the cells frozen at −80°C for at least 24 hours before measurement of cellular β‐galactosidase expression using chlorophenol red‐β‐D‐galactopyranoside. Ligands were made up in 0.5% FBS DMEM media. […] HEK293T cells transiently transfected with GPR68 and pCRE were stimulated with sodium bicarbonate‐free, low glucose DMEM, supplemented with 20 mmol/L HEPES and 0.5% FBS at pH 6.8, 7.0, 7.2, 7.4, and 7.8. The pH was adjusted at 37°C with NaOH. […]
Nuclear magnetic resonance (NMR) data were processed in Topspin 3.5 using squared cosine‐bells in both dimensions and zero‐filled once, prior to Fourier‐transformation. All other data was analyzed with Graphpad prism 7 (San Diego, CA, USA). […] For whole cell QAPB binding, the mean QAPB fluorescence intensity (MFI) of at lease 5000 cells was measured, and plotted against QAPB concentration. Values reported represent the mean and SD of at least three K d values calculated from separate measurements. […]

[1] = tested on: α1B‐AR expressing COS‐7 cells; experiment: Phenylephrine-induced CRE reporter assay; format: cell-based
[2] = tested on: purified guinea pig PDE‐4; conditions: cited from earlier work
[3] = tested on: untransfected HEK293T cells; experiment: Isoprenaline-induced CRE reporter assay; format: cell-based, human; conditions: 50 μmol/L diazepam
WT α1B‐AR = molecular target: T2, WT α1B‐AR (Homo sapiens, UniProt P35368); experiment: Intracellular Ca2+ mobilization in stably expressing COS‐7 cells; format: cell-based; conditions: 0 to 50 μmol/L; absence or presence of 10 nmol/L phenylephrine
T2 construct: COS‐7 cells stably expressing unmodified α1B‐AR; expressed in transfected cells
T2 sequence (P35368 1-520): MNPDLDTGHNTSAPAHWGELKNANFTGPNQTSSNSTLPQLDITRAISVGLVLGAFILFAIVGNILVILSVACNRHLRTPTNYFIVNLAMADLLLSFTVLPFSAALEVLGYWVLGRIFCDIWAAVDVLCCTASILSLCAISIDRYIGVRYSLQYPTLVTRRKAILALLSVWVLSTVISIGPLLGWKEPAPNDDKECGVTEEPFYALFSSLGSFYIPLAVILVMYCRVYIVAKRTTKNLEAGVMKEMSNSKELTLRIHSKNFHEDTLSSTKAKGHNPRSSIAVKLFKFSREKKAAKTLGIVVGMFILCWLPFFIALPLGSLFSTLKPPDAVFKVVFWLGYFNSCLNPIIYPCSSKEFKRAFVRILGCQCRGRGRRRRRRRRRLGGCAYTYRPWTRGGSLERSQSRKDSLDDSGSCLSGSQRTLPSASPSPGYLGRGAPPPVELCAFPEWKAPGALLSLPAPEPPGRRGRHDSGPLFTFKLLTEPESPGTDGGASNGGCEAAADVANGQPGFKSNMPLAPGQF

guinea pig PDE‐4 = conditions: cited from earlier work
α1B‐AR #15 = experiment: QAPB competition binding at purified thermostabilized receptor on paramagnetic beads
[4] = tested on: untransfected human embryonic kidney 293T cells; experiment: Forskolin-induced CRE reporter assay; format: cell-based; conditions: 50 μmol/L diazepam
[5] = tested on: untransfected COS‐7 cells; experiment: Phenylephrine-induced CRE reporter assay; format: cell-based; conditions: 50 μmol/L diazepam; cells do not express α1A‐AR and α1B‐AR
Method: (§1) cAMP response element (CRE) response assays were performed as previously described by transfecting WT α1A‐ and α1B‐AR stably expressing COS‐7 cells, parental COS‐7 cells or parental HEK293T cells, with a β‐galactosidase expression plasmid under the control of the CRE promoter.10 CRE reporter‐transfected cells were seeded into 96‐well culture plates for 24 hours before treatment with various compounds for 6 hours at 37°C 5% CO2. Media was aspirated, and the cells frozen at −80°C for at least 24 hours before measurement of cellular β‐galactosidase expression using chlorophenol red‐β‐D‐galactopyranoside. Ligands were made up in 0.5% FBS DMEM media. […] HEK293T cells transiently transfected with GPR68 and pCRE were stimulated with sodium bicarbonate‐free, low glucose DMEM, supplemented with 20 mmol/L HEPES and 0.5% FBS at pH 6.8, 7.0, 7.2, 7.4, and 7.8. The pH was adjusted at 37°C with NaOH. Cells were incubated for 6 hours at 37°C, in a room atmosphere incubator.

WT α1A‐AR = molecular target: T3, WT α1A‐AR (Homo sapiens, UniProt P35348); experiment: Intracellular Ca2+ mobilization in stably expressing COS‐7 cells; format: cell-based; conditions: 0 to 50 μmol/L; absence or presence of 10 nmol/L phenylephrine
T3 construct: expressed in transfected cells
T3 sequence (P35348 1-466): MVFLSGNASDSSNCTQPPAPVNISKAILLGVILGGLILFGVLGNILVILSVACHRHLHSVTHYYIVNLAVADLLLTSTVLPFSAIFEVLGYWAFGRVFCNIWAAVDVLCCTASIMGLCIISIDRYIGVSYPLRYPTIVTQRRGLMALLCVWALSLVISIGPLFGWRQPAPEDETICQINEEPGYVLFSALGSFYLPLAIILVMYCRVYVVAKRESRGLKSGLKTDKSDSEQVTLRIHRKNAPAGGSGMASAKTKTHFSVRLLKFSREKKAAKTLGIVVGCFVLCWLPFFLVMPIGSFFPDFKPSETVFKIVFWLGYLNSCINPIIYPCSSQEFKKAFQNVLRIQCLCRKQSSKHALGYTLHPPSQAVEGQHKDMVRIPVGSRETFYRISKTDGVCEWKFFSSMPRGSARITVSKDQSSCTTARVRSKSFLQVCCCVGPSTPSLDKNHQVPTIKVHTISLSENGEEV

[6] = tested on: α1A‐AR expressing COS‐7 cells; experiment: Phenylephrine-induced CRE reporter assay; format: cell-based
Method: as §1
Nuclear magnetic resonance (NMR) data were processed in Topspin 3.5 using squared cosine‐bells in both dimensions and zero‐filled once, prior to Fourier‐transformation. All other data was analyzed with Graphpad prism 7 (San Diego, CA, USA). All error bars are standard deviation (SD) from three independent experiments. Competition binding assays were performed in duplicate wells. Curves were fit with one site nonlinear regression. For whole cell QAPB binding, the mean QAPB fluorescence intensity (MFI) of at lease 5000 cells was measured, and plotted against QAPB concentration. Values reported represent the mean and SD of at least three K d values calculated from separate measurements. Ca^2+ mobilization data were performed in triplicate wells and normalized to the peak response elicited by 3 μmol/L ionomycin. CRE assay was conducted in triplicate, and data were normalized to the response elicited by the vehicle. Curves were fitted with three variable nonlinear regressions. For GPR68 assays, responses were normalized to CRE response at pH 6.8 (100%) and pH 7.8 (0%).

[7] = 10 nmol/L QAPB, 2 hours, benzodiazepines up to 200 μmol/L
[8] = 2.5 mmol/L phenylephrine, increasing diazepam

T1 sequence (Q15743 whole entry, species assumed): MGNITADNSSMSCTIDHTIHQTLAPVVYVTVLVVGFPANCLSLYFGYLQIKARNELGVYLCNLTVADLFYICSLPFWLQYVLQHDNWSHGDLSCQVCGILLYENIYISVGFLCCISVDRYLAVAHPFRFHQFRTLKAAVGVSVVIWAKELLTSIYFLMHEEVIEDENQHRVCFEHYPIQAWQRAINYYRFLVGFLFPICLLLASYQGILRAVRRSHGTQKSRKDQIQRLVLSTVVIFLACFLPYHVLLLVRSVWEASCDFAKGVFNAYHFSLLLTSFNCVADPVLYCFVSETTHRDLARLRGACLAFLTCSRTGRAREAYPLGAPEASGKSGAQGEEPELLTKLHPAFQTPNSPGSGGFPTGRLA

CN1C(=O)CN=C(c2ccccc2)c2cc(Cl)ccc21 [diazepam]
Modulation of GPR68 CRE response (GPR68): did not significantly increase the CRE response of GPR68 | EC50 ([1]; COS-7, 800 nmol/L phenylephrine, mean ± SD from three experiments, read-out: EC50 for modulating the phenylephrine CRE response): 7.8 ± 1.9 µM | CRE response in the absence of phenylephrine ([1]; diazepam alone): did not induce a CRE response | QAPB displacement (α1A‐AR A4; [7]): neither diazepam nor lorazepam displaced QAPB at either receptor | Cooperativity with phenylephrine in QAPB displacement (α1A‐AR A4; [8]): No cooperativity between diazepam and phenylephrine was observed | Competition with 3H‐rolipram [2]: competes with ^3H‐rolipram | Modulation of isoprenaline CRE efficacy [3]: significantly increased the CRE efficacy of isoprenaline | Effect on Ca2+ mobilization (WT α1B‐AR): had no effect | IC50 (guinea pig PDE‐4): 9 µM | QAPB displacement (α1B‐AR #15; [7]): neither diazepam nor lorazepam displaced QAPB at either receptor | Cooperativity with phenylephrine in QAPB displacement (α1B‐AR #15; [8]): No cooperativity between diazepam and phenylephrine was observed | Modulation of forskolin potency in CRE assay [4]: positively modulated the potency | Modulation of phenylephrine‐induced CRE response [5]: positively modulated | Effect on Ca2+ mobilization (WT α1A‐AR): had no effect | Modulation of phenylephrine potency in CRE assay ([6]; 50 μmol/L diazepam): positively modulated the potency of phenylephrine | EC50 ([6]; COS-7, 200 nmol/L phenylephrine, mean ± SD from three experiments, read-out: EC50 for modulating the phenylephrine CRE response): 6.5 ± 4.8 µM | CRE response in the absence of phenylephrine ([6]; diazepam alone): did not induce a CRE response

— publication PMC6306559 (Pharmacology Research & Perspectives, 2018)
